The text below walks through data of patent US20230391781A1, “MALT1 MODULATORS AND USES THEREOF” (Rheos Medicines, Inc., priority 2020, published 2023).

The structures appear in SMILES notation. Where a name gives a salt, the structure may show the parent alone. Read-outs that look alike come from different tables or passages of the source.

In test [1] the test system is IL-2 in Jurkat (ATCC, clone E6.1) cells stimulated with anti-CD3/28/2. The test is described as follows: Jurkat IL-2 Assay. In kind it is cell-based. The note with it: Homo sapiens. The procedure: Inhibition was determined in a cell-based assay using Jurkat (ATCC, clone E6.1), an immortalized T-cell line, exposed to a dose response of compound and assessed for viability, and Il-2 inhibition by ELISA. Cells were cultured in RPMI/10% FBS (Invitrogen 11875093, Atlanta Biologicals S12450H), maintained below 3E6/mL and only used in assays while below passage 25. Compounds were stamped by ECHO onto 384w plates (PerkinElmer Culturplate, 6007680). The cells were plated in fresh media on top of compound and incubated for 30 minutes before stimulation with soluble anti-CD3/28/2 (Stemcell, 10970) for 24 hours. Supernatant was collected and assessed for Il-2 (MSD, 384w, L21SA-1). To assess viability of cells treated with compound, cells were lysed with CTG reagent (Promega, G7570), and measured by luminometer. […] IC50s calculated using 4-parameter fit in GraphPad Prism.
In this table, “A” indicates IC50 of less than 0.1 μM; “B” indicates IC50 from 0.1 μM up to 1 μM; and “C” indicates IC50 of greater than 1 μM. “N/A” indicates not tested. For a compound that was tested in more than one experiment, the result shown represents the mean value.

Another test concerns the target full length MALT1 (Homo sapiens (Human), UniProt Q9UDY8). The test is described as follows: MALT1 Biochemical Assay. The note with it: 15 nM enzyme, 30 μM peptide substrate Ac-Leu-Arg-Ser-Arg-Rh110-dPro, 30 min pre-incubation, 60 min reaction; mean value if tested more than once. The procedure: Inhibitor potency was evaluated by measuring enzymatic activity of full length MALT1 at varying concentrations of compound. The enzymatic assay consists of a single substrate reaction that monitors the release of a fluorescent dye upon cleavage of the peptide substrate. […] The assay buffer consists of 50 mM Hepes, pH 7.5, 0.8 M sodium citrate, 1 mM DTT, 0.004% tween-20, and 0.005% bovine serum albumin (BSA). […] The reaction was quenched after 60 minutes with the addition of iodoacetate at a final concentration of 10 mM. Total fluorescence was measured using an Envision (PerkinElmer) with fluorescence excitation at 485 nm and emission at […].
For potency determination, 1 μL of serially diluted compound (in 100% DMSO) was pre-incubated with 40 μL of enzyme for 30 minutes. The reaction was initiated with the addition of 10 μL of peptide substrate. The relative fluorescence units were transformed to percent inhibition by using 0% and 100% inhibition controls as reference. […] IC50 values were calculated by fitting the concentration-response curves to a four-parameter logistic equation in GraphPad Prism.

[2] abbreviates: IL-2 inhibition, Jurkat cells, 30 min compound then anti-CD3/28/2 stimulation for 24 hours, mean value if tested more than once, read-out: IC50.

full length MALT1, sequence (Q9UDY8 whole entry): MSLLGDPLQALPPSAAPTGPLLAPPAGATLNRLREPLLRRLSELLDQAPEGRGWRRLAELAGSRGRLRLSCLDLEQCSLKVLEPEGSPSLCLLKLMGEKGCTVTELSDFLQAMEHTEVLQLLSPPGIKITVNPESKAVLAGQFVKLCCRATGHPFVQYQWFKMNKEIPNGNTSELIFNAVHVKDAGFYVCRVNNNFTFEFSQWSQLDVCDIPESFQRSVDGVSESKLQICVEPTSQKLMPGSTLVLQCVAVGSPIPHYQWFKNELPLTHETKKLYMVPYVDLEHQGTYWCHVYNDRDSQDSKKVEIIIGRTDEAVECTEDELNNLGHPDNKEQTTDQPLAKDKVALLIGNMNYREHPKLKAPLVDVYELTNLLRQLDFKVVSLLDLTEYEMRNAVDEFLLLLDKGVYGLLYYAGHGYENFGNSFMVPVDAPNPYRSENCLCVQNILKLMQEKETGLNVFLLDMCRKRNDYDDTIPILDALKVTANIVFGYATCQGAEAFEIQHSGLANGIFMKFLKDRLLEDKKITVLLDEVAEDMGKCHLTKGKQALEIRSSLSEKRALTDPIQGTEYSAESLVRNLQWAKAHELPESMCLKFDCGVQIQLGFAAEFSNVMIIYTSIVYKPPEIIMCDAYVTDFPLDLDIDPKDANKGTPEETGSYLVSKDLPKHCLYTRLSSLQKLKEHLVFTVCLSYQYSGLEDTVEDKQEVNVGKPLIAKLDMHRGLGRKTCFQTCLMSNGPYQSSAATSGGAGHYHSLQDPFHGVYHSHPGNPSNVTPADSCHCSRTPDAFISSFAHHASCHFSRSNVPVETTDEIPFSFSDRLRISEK

In the case of `CO[C@@H](C)c1c(Nc2ccc(C(N(C)C(C)=O)C(F)(F)F)cc2)cnc2nc(Cl)nn12` (stereo partly drawn) [Compound 1.25, N-{1-[4-({2-chloro-7-[(1S)-1-methoxyethyl]-[1,2,4]triazolo[1,5-a]pyrimidin-6-yl}amino)phenyl]-2,2,2-trifluoroethyl}-N-methylacetamide], the results for the IC50 (in test [1] (setting [2]); against full length MALT1) were over 1 µM and 0.1 to 1 µM, respectively.
`CO[C@@H](C)c1c(Nc2ccc([C@@H](N(C)C(=O)C3CCS(=O)(=O)CC3)C(F)(F)F)cc2)cnc2nc(Cl)nn12` [Compound 1.26, N-[(1R)-1-[4-({2-chloro-7-[(1S)-1-methoxyethyl]-[1,2,4]triazolo[1,5-a]pyrimidin-6-yl}amino)phenyl]-2,2,2-trifluoroethyl]-N-methyl-1,1-dioxo-1λ^6-thiane-4-carboxamide]: the IC50 (in test [1] (setting [2]); at full length MALT1) was over 1 µM throughout.
`CO[C@H](C)c1c(Nc2ccc([C@@H](N(C)C(=O)C3CCS(=O)(=O)CC3)C(F)(F)F)cc2)cnc2nc(Cl)nn12` [Compound 1.27, N-[(1R)-1-[4-({2-chloro-7-[(1R)-1-methoxyethyl]-[1,2,4]triazolo[1,5-a]pyrimidin-6-yl}amino)phenyl]-2,2,2-trifluoroethyl]-N-methyl-1,1-dioxo-1λ^6-thiane-4-carboxamide]: the concentration for half-maximal inhibition (IC50) (in test [1] (setting [2]); against full length MALT1) was over 1 µM in each case.
Take `CO[C@@H](C)c1c(Nc2ccc([C@H](N(C)C(=O)C3CCC3)C(F)(F)F)c(C)c2)cnc2nc(Cl)nn12` [Compound 1.28, N-[(1S)-1-[4-({2-chloro-7-[(1S)-1-methoxyethyl]-[1,2,4]triazolo[1,5-a]pyrimidin-6-yl}amino)-2-methylphenyl]-2,2,2-trifluoroethyl]-N-methylcyclobutanecarboxamide]: the IC50 (in test [1] (setting [2]); against full length MALT1) was over 1 µM throughout.
With `CO[C@@H](C)c1c(Nc2ccc([C@H](N(C)C(=O)C3CC3)C(F)(F)F)c(C)c2)cnc2nc(Cl)nn12` [Compound 1.29, N-[(1S)-1-[4-({2-chloro-7-[(1S)-1-methoxyethyl]-[1,2,4]triazolo[1,5-a]pyrimidin-6-yl}amino)-2-methylphenyl]-2,2,2-trifluoroethyl]-N-methylcyclopropanecarboxamide], the half-inhibitory concentration (IC50) (in test [1] (setting [2]); against full length MALT1) was over 1 µM throughout.
With `CO[C@@H](C)c1c(Nc2ccc([C@H](N(C)C(=O)C3CCS(=O)(=O)CC3)C(F)(F)F)c(C)c2)cnc2nc(Cl)nn12` [Compound 1.30, N-[(1S)-1-[4-({2-chloro-7-[(1S)-1-methoxyethyl]-[1,2,4]triazolo[1,5-a]pyrimidin-6-yl}amino)-2-methylphenyl]-2,2,2-trifluoroethyl]-N-methyl-1,1-dioxo-1λ^6-thiane-4-carboxamide], the figures for the IC50 (in test [1] (setting [2]); against full length MALT1) were over 1 µM and 0.1 to 1 µM, respectively.
On the same counts, the results for `CO[C@@H](C)c1c(Nc2ccc([C@H](N(C)C(=O)C3CCC3)C(F)(F)F)cc2C)cnc2nc(Cl)nn12` [Compound 1.31, N-[(1S)-1-[4-({2-chloro-7-[(1S)-1-methoxyethyl]-[1,2,4]triazolo[1,5-a]pyrimidin-6-yl}amino)-3-methylphenyl]-2,2,2-trifluoroethyl]-N-methylcyclobutanecarboxamide] are over 1 µM and over 1 µM.
As to `CO[C@@H](C)c1c(Nc2ccc([C@H](N(C)C(=O)C3CC3)C(F)(F)F)cc2C)cnc2nc(Cl)nn12` [Compound 1.32, N-[(1S)-1-[4-({2-chloro-7-[(1S)-1-methoxyethyl]-[1,2,4]triazolo[1,5-a]pyrimidin-6-yl}amino)-3-methylphenyl]-2,2,2-trifluoroethyl]-N-methylcyclopropanecarboxamide], the IC50 in test [1] (setting [2]) was over 1 µM; at full length MALT1 it was 0.1 to 1 µM.
The corresponding values for `CO[C@@H](C)c1c(Nc2ccc([C@H](N(C)C(=O)C3CCS(=O)(=O)CC3)C(F)(F)F)cc2C)cnc2nc(Cl)nn12` [Compound 1.33, N-[(1S)-1-[4-({2-chloro-7-[(1S)-1-methoxyethyl]-[1,2,4]triazolo[1,5-a]pyrimidin-6-yl}amino)-3-methylphenyl]-2,2,2-trifluoroethyl]-N-methyl-1,1-dioxo-1λ^6-thiane-4-carboxamide] are over 1 µM and 0.1 to 1 µM.
Take `CO[C@@H](C)c1c(Nc2ccc([C@H](N(C)C(=O)C3CCNCC3)C(F)(F)F)cc2)cnc2nc(Cl)nn12` [Compound 2.1, N—((S)-1-(4-((2-chloro-7-((S)-1-methoxyethyl)-[1,2,4]triazolo[1,5-a]pyrimidin-6-yl)amino)phenyl)-2,2,2-trifluoroethyl)-N-methylpiperidine-4-carboxamide trifluoroacetate]: the IC50 (in test [1] (Jurkat); on full length MALT1) was 0.1 to 1 µM throughout.
Regarding `CO[C@@H](C)c1c(Nc2ccc([C@H](N(C)C(=O)C3CCCNC3)C(F)(F)F)cc2)cnc2nc(Cl)nn12` (stereo partly drawn) [Compound 2.2, N-[(1S)-1-[4-({2-chloro-7-[(1S)-1-methoxyethyl]-[1,2,4]triazolo[1,5-a]pyrimidin-6-yl}amino)phenyl]-2,2,2-trifluoroethyl]-N-methylpiperidine-3-carboxamide], the IC50 is over 1 µM in test [1] (setting [2]) and 0.1 to 1 µM against full length MALT1.
Consider `CO[C@@H](C)c1c(Nc2ccc([C@H](N(C)C(=O)C3CCNC3)C(F)(F)F)cc2)cnc2nc(Cl)nn12` (stereo partly drawn) [Compound 2.3, N—((S)-1-(4-((2-chloro-7-((S)-1-methoxyethyl)-[1,2,4]triazolo[1,5-a]pyrimidin-6-yl)amino)phenyl)-2,2,2-trifluoroethyl)-N-methylpyrrolidine-3-carboxamide hydrochloride], for which the IC50 (in test [1] (setting [2]); against full length MALT1) was 0.1 to 1 µM in each case.
Take `CO[C@@H](C)c1c(Nc2ccc([C@H](N(C)C(=O)C3CCC(CN)CC3)C(F)(F)F)cc2)cnc2nc(Cl)nn12` (stereo partly drawn) [Compound 2.4, 4-(aminomethyl)-N-[(1S)-1-[4-({2-chloro-7-[(1S)-1-methoxyethyl]-[1,2,4]triazolo[1,5-a]pyrimidin-6-yl}amino)phenyl]-2,2,2-trifluoroethyl]-N-methylcyclohexane-1-carboxamide; Formic Acid]: the half-inhibitory concentration (IC50) in test [1] (setting [2]) is 0.1 to 1 µM; against full length MALT1, under 0.1 µM.
The corresponding values for `CO[C@@H](C)c1c(Nc2ccc([C@H](N(C)C(=O)C3CCN(S(=O)(=O)C(C)C)CC3)C(F)(F)F)cc2)cnc2nc(Cl)nn12` [Compound 3.2, N-[(1S)-1-[4-({2-chloro-7-[(1S)-1-methoxyethyl]-[1,2,4]triazolo[1,5-a]pyrimidin-6-yl}amino)phenyl]-2,2,2-trifluoroethyl]-N-methyl-1-(propane-2-sulfonyl)piperidine-4-carboxamide] are 0.1 to 1 µM and under 0.1 µM.
Regarding `COC(=O)N1CCC(C(=O)N(C)[C@@H](c2ccc(Nc3cnc4nc(Cl)nn4c3[C@H](C)OC)cc2)C(F)(F)F)CC1` [Compound 3.3, methyl 4-{[(1S)-1-[4-({2-chloro-7-[(1S)-1-methoxyethyl]-[1,2,4]triazolo[1,5-a]pyrimidin-6-yl}amino)phenyl]-2,2,2-trifluoroethyl](methyl)carbamoyl}piperidine-1-carboxylate], the figures for the IC50 (in test [1] (setting [2]); against full length MALT1) were 0.1 to 1 µM and under 0.1 µM, respectively.
With `CO[C@@H](C)c1c(Nc2ccc([C@H](N(C)C(=O)C3CCCN(C(C)=O)C3)C(F)(F)F)cc2)cnc2nc(Cl)nn12` (stereo partly drawn) [Compound 3.5, 1-acetyl-N-[(1S)-1-[4-({2-chloro-7-[(1S)-1-methoxyethyl]-[1,2,4]triazolo[1,5-a]pyrimidin-6-yl}amino)phenyl]-2,2,2-trifluoroethyl]-N-methylpiperidine-3-carboxamide], the 50% inhibitory concentration (IC50) was 0.1 to 1 µM in test [1] (setting [2]) and under 0.1 µM at full length MALT1.

As a reminder, the IC50 is the concentration that gives 50% inhibition.
